The values that follow come from PMC8237267 (Journal of Medicinal Chemistry, 2021).

pIC50: −log10 of the molar value. Where “and” joins values, the source holds several entries; their conditions need not be identical. Equal entries are not always repeated. Where two headings read alike, the source gives them in different places.

The target of data set [1] is T1, HDAC3 (Homo sapiens, UniProt O15379).
T1 construct: The full-length human HDACs were recombinantly expressed and purified from SF9 insect cells; host or cells: SF9 insect cells
T1 sequence (O15379 whole entry): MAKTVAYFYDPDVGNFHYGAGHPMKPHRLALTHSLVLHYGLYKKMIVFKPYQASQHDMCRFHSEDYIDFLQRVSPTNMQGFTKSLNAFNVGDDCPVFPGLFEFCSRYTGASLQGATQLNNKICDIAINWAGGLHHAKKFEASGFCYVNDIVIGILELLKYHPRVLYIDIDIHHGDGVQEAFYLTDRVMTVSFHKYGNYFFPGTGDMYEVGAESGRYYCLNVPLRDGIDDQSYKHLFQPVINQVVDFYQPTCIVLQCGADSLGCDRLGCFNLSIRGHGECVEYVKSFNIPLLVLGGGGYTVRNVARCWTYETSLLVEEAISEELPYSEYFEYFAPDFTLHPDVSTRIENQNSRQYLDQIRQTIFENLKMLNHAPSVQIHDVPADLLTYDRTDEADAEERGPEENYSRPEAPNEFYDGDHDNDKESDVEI
T1 sequence (Q9Y618 395-489 partner limits assumed): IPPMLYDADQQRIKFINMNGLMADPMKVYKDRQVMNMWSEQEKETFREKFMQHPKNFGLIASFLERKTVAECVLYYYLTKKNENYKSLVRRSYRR
Nature of the data set: HDAC EMSA activity assay (Nanosyn). Type of data set: biochemical. The conditions noted are these: recombinant enzyme, read-out: In vitro IC50 HDAC3.

Data set [2] addresses T2, HDAC6 (Homo sapiens, UniProt Q9UBN7).
T2 sequence (Q9UBN7 1-1215): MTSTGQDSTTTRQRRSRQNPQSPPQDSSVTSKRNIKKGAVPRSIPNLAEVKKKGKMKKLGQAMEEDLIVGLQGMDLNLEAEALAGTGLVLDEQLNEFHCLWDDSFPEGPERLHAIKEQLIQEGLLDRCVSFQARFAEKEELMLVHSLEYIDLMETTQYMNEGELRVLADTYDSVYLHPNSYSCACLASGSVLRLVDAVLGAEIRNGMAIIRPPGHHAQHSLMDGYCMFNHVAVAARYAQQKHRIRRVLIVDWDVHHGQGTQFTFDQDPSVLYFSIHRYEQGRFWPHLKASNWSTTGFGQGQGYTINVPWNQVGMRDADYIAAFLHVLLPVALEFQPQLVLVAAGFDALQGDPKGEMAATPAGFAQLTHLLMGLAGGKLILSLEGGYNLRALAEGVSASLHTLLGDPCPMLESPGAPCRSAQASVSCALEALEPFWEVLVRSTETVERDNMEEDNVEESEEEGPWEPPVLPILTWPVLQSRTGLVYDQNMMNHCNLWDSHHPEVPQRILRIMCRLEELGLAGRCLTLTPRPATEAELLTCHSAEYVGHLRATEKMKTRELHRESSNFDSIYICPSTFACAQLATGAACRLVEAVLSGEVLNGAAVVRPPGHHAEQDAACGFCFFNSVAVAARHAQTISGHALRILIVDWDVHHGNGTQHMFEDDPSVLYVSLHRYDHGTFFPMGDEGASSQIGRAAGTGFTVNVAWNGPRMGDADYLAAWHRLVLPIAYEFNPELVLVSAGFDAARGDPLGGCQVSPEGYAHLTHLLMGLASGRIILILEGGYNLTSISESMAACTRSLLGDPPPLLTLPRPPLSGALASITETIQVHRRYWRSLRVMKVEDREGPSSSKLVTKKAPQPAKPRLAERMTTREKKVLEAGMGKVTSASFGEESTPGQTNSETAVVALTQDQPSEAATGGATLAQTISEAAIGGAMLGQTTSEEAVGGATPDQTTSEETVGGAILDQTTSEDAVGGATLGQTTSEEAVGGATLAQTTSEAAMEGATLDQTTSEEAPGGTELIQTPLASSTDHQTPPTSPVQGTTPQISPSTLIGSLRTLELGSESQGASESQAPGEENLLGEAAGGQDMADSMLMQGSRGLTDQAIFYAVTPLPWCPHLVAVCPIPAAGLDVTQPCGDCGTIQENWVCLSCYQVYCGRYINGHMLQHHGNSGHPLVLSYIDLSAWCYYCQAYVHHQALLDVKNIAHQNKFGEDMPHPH
The data set can be described thus: HDAC EMSA activity assay (Nanosyn). Type of data set: biochemical. Also on record: The full-length human HDACs were recombinantly expressed and purified from SF9 insect cells; host or cells: SF9 insect cells. The conditions noted are these: for pIC50: EMSA (Nanosyn); for HDAC6 fold-selectivity: over the next closest HDAC isoform tested, * = selectivity ≥ indicated value. A general note: A gel shift assay detects complexes by their altered migration in electrophoresis.

In data set [3] the target is T2, HDAC6. The data set can be described thus: Reversibility of inhibition (Koff kinetics), residence time. Type of data set: biochemical. The settings on record: compound-HDAC6 complex; read-out: in vitro residence time (1/kobs). From the text:
Progress curves were obtained after dilution, and enzyme recovery was fitted with the following equation: % conv = Vs × t + (Vi – Vs)/Kobs app × (1 – exp(−Kobs app × t), in which Vi is the initial velocity, Vs is steady state velocity, and Kobs is the observed rate constant. The obtained Kobs rate constant was used to determine the reversibility of inhibition and calculate residence time as 1/2Tres = ln2 × 1/Kobs.

Data set [4] has as its system MRC-9. The data set can be described thus: Cytotoxicity assay (Cell Titer-Blue, 72 h). Type of data set: cell-based. The conditions noted are these: MRC9; MRC-9 (healthy fibroblasts); read-out: In cellulo IC50 MRC-9. For orientation: Resazurin is reduced to fluorescent resorufin, in cell work by metabolically active cells.
In data set [5] the target is T3, HDAC8 (Homo sapiens, UniProt Q9BY41).
T3 construct: The full-length human HDACs were recombinantly expressed and purified from SF9 insect cells; host or cells: SF9 insect cells
T3 sequence (Q9BY41 1-377): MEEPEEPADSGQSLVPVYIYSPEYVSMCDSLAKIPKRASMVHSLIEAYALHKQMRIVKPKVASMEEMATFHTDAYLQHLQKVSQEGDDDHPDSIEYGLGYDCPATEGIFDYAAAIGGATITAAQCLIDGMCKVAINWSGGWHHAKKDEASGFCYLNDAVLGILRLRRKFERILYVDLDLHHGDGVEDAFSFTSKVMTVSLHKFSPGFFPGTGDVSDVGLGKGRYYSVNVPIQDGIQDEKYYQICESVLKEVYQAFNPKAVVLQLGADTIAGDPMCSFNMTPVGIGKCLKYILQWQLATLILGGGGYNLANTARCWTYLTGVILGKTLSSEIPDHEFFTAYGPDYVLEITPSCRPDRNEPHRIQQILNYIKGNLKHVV
Nature of the data set: HDAC EMSA activity assay (Nanosyn). Type of data set: biochemical. The conditions noted are these: recombinant enzyme, EMSA (Nanosyn); read-out: In vitro IC50 HDAC8.

In data set [6] the test system is MV4-11. Nature of the data set: Cytotoxicity assay (Cell Titer-Blue, 72 h). Type of data set: cell-based. The conditions noted are these: Homo sapiens; MV4-11 (AML); read-out: In cellulo IC50 MV4-11.
Data set [7] has as its target T4, HDAC11 (Homo sapiens, UniProt Q96DB2).
T4 construct: The full-length human HDACs were recombinantly expressed and purified from SF9 insect cells; host or cells: SF9 insect cells
T4 sequence (Q96DB2 1-347): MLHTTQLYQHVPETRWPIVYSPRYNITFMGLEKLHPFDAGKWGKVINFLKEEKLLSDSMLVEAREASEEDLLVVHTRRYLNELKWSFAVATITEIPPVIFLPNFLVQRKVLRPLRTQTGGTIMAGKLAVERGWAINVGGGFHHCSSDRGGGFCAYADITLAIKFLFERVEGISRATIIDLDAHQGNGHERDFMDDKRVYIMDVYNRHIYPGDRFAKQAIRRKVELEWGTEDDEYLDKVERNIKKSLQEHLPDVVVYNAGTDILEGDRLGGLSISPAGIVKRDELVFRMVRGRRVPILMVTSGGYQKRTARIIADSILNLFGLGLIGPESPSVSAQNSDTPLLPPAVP
The data set can be described thus: HDAC EMSA activity assay (Nanosyn). The conditions noted are these: recombinant enzyme, read-out: In vitro IC50 HDAC11. Type of data set: biochemical.

Data set [8] can be described thus: Stability in hepatocytes (species not stated). Type of data set: in vitro ADME. More on the design: dose or concentration left out as unconfirmed. The conditions noted are these: mouse, species not given.
Data set [9] is described as follows: Glutathione stability / reactivity assay. Type of data set: in vitro ADME. The protocol: Although covalent modification of HDAC6 was not observed (Figure S2), the PFBS group is susceptible to nucleophilic aromatic substitution by biological nucleophiles. A previously described high-throughput in vitro glutathione-reactivity assay was conducted, where compounds were incubated in the presence of glutathione (GSH) and the formation of a GSH-compound adduct was monitored over time via LC/MS/MS.[50]
Compound was added to PBS and 5 mM GSH to reach a final concentration of 5 μM. […] Samples were vortexed and centrifuged for 45 min at 3220g. Aliquots were diluted by ultrapure water, and used for LC/MS/MS analysis. Peak area ratios were determined and percent compounds remaining was calculated by the following equation: [drawing 1] where peak area ratio (t min) is the peak area ratio of control and test compounds at t min; peak area ratio0min is the peak area ratio of control and test compounds at the zero time point. In vitro half-life (t1/2) = −(0.693/k).

The target in data set [10] is T2, HDAC6. The data set can be described thus: Time-dependent IC50 assay with preincubation (0-6 h). The conditions noted are these: 6 h time-dependent assay. Type of data set: biochemical. The protocol:
The binding kinetics profile of KT-531 was also investigated by determining the association (kon)/dissociation (koff) rates as well as residence time parameters. The in vitro residence time (1/kobs) for the KT-531–HDAC6 complex was determined to be 23.18 min, as compared to 10.72 min for 1.

Data set [11] is described as follows: Stability in human hepatocytes. Type of data set: in vitro ADME. The conditions noted are these: read-out: t1/2 in human hepatocytes.
Data set [12] is described as follows: In vitro stability in mouse hepatocytes. The settings on record: read-out: Stability in mouse hepatocytes t1/2. Type of data set: in vitro ADME. The protocol: The inhibitors (and controls) were formulated to concentrations of 100 μM in 50% acetonitrile/50% water. The medium (William’s E Medium supplemented with GlutaMAX) and hepatocyte thawing medium were allowed to reach room temperature and the hepatocytes and thawing medium and centrifuged at 100 g for 10 min. The supernatant was removed, and hepatocytes resuspended in the incubation medium (∼1.5 × 10^6 cells/mL). The cells were diluted to 0.5 × 10^6 viable cells/mL. A volume of 198 μL of hepatocytes was transferred to a 96-well noncoated plate and incubated at 37 °C for 10 min. Following this, 2 μL of the 100 μM test compounds or positive control was transferred into respective wells to start the reaction. At different time points (0, 15, 30, 60, 90, and 120 min), 25 μL aliquots were mixed with 6 volumes (150 μL) of acetonitrile containing internal standard, IS (100 nM alprazolam, 200 nM labetalol, 200 nM caffeine, and 200 nM diclofenac) to terminate the reaction. Samples were vortexed for 5 min and centrifuged for 45 min at 3220g, diluted by ultrapure water, followed by LC/MS/MS analysis. The in vitro half-life (T1/2) was determined by regression analysis of the percent parent disappearance vs time curve (T1/2 = 0.693/k) using Microsoft Excel.

Data set [13] in a line: Stability in mouse plasma. Type of data set: in vitro ADME. Also on record: half-life at 2 h: dose or concentration left out as unconfirmed. The conditions noted are these: read-out: Plasma stability t1/2. The protocol: The plasma stability of the compounds was evaluated in mouse plasma provided from Sigma-Aldrich, Oakville, Canada. The main stock solutions of the compounds were prepared at 10 mM in DMSO, which was diluted to 100 μM in 50% acetonitrile (ACN)/50% water. Aliquots of 356.5 μL of plasma proteins were placed in a heating block and allowed to equilibrate at 37 °C for 5 min. Then, 3.5 μL of 100 μM compound solutions were added to each vial (final concentration of 1 μM). Three quality control (QC) samples at 100, 500, and 1000 nM were prepared in 0.5% ACN. The vial contents were transferred in 50 μL aliquots at time points of 0.5, 5, 10, 20, 30, and 60 mi to a 96-well autosampler plate containing 150 μL of protein precipitation solution. Ice-cold ACN containing internals standards (100 nM glyburide) were used as the protein precipitation solution. After centrifugation at 4 °C, 5500 rpm for 15 min, the supernatant was diluted in MQ water, and injected into the LC/MS/MS for quantitative analysis.
The mobile phase consisted of (A) 0.1% (v/v) formic acid in Milli-Q water; (B) 0.1% (v/v) formic acid in acetonitrile. […] Peak areas were determined from extracted ion chromatograms. The in vitro half-life (t1/2) of parent compounds were determined by regression analysis of the percent parent disappearance vs time curve.

[14] abbreviates: recombinant enzyme, read-out: In vitro IC50 HDAC6.
Setting [15] is: PBS with 5 mM glutathione (GSH), 5 mM GSH, PBS, read-out: half-life in incubation with GSH.

A word on the pIC50: it is the negative decadic logarithm of the IC50, by convention in mol/L.

In the case of `O=C(NO)c1ccc(CNC(=O)c2c(F)c(F)c(F)c(F)c2F)cc1` [Compound 1, 2,3,4,5,6-Pentafluoro-N-(4-(hydroxycarbamoyl)benzyl)benzamide], the pIC50 is 6.70 in data set [1]; 8.23 in data set [2] (read-out: IC50 HDAC6); 8.22 in [2] (setting [14]); under 4.30 in [4]; 6.15 in [5]; 5.73 in data set [6]. Moreover, the pIC50 in data set [7] is under 6.00. Besides, the HDAC6 fold-selectivity in data set [2] is 36 fold and 36.32 fold. The residence time in data set [3] was determined as 10.7 min.

As for `O=C(NO)c1ccc(CN(C2CC2)S(=O)(=O)c2c(F)c(F)c(F)c(F)c2F)cc1` [Compound 5, 4-(((N-Cyclopropyl-2,3,4,5,6-pentafluorophenyl)sulfonamido)methyl)-N-hydroxybenzamide], in data set [8], the half-life at 2 h came out at 3 min. Also, the negative logarithm of the IC50 (pIC50) in data set [1] was 7.15; in data set [2] (read-out: IC50 HDAC6), 9.05; in [4], under 4.70; in data set [5], 7.54; in [7], 7.33. Also, in data set [9] (setting [15]), the half-life at 5 μM is about 20 min. The half-life at 2 h, 5 µM in data set [9] (setting [15]) was 20 min. For the same compound, the “reversibility of binding (IC50 over preincubation time)” value in [10] was “unchanged IC50 values”. For the same compound, the half-life in data set [11] came to 3.84 min. For the same compound, in [12], the half-life at 1 μM was under 2.26 min.

Take `O=C(NO)c1ccc(CN(C2CC2)S(=O)(=O)c2c(F)c(F)cc(F)c2F)cc1` [Compound 6, 4-(((N-Cyclopropyl-2,3,5,6-tetrafluorophenyl)sulfonamido)methyl)-N-hydroxybenzamide]: the pIC50 in data set [1] is under 6.00; in data set [2] (setting [14]) it was 8.00; in data set [4], under 4.82; in data set [5], 6.42; in [6], 5.21; in data set [7], under 6.00. In addition, the “reactivity with glutathione” value in [9] (GSH adduct formation by LC/MS/MS, KT-531 up to 24 h) is given as “unreactive toward GSH”. The HDAC6 fold-selectivity in [2] amounted to 37.8 fold. Also, in data set [13], the half-life at 2 h turned out to be 25 min.
